Reference: patent publication US10336697B2, “Spiro[cyclobutane-1,3′-indolin]-2′-one derivatives as bromodomain inhibitors” (Orion Corporation, priority 2015, dated 2019)
Where a name gives a salt, the structure may show the parent alone.

What follows are compounds tested against Bet BRD4 full length bromo-domain protein (Homo sapiens, UniProt O60885) (assay: Bet bromodomain TR-FRET assay (displacement of acetyl histone peptide)). Conditions: Bet BRD4 full length bromodomain protein, 300 nM acetyl histone peptide substrate, read-out: IC50.
Type: binding
Compound `O=C1CCC(Nc2cc(NS(=O)(=O)c3ccc(F)cc3F)cc3c2NC(=O)C32CCC2)CN1` (stereo not drawn) [Compound 33, 2,4-Difluoro-N-(2′-oxo-7′-((6-oxopiperidin-3-yl)amino)spiro[cyclobutane-1,3′-indolin]-5′-yl)benzenesulfonamide] has an IC50 of less than 600 nM.
`COc1ccccc1S(C)(=O)=Nc1cc(N)c2c(c1)C1(CCC1)C(=O)N2` (stereo not drawn) [Compound-182, 7′-Amino-5′-(((2-methoxyphenyl)(methyl)(oxo)-l6-sulfanylidene)amino)spiro[cyclobutane-1,3′-indolin]-2′-one] was tested, and the IC50 was greater than 1000 nM.
`COc1ccccc1S(=O)(=O)Nc1cc(OC(C)c2cccnc2)c2c(c1)C1(CCC1)C(=O)N2` (single isomer, unassigned) [Compound 152, 2-methoxy-N-(2′-oxo-7′-(1-(pyridin-3-yl)ethoxy)spiro[cyclobutane-1,3′-indolin]-5′-yl)benzenesulfonamide] showed an IC50 of less than 600 nM.
For `CNCCOc1cc(NS(=O)(=O)c2ccccc2OC)cc2c1NC(=O)C21CCC1` [compound 204, 2-Methoxy-N-(7′-(2-(methylamino)ethoxy)-2′-oxospiro[cyclobutane-1,3′-indolin]-5′-yl)benzenesulfonamide], the IC50 was less than 600 nM.
`COc1ccccc1S(=O)(=O)Nc1cc(NC2=CC(=O)NCC2)c2c(c1)C1(CCC1)C(=O)N2` [Compound 77, 2-Methoxy-N-(2′-oxo-7′-((6-oxo-1,2,3,6-tetrahydropyridin-4-yl)amino)spiro[cyclobutane-1,3′-indolin]-5′-yl)benzenesulfonamide] showed an IC50 of less than 600 nM.
With `CN1CCCC(Oc2cc(NS(=O)(=O)c3ccc(Cl)cc3F)cc3c2NC(=O)C32CCC2)C1` (stereo not drawn) [Compound 131, 4-Chloro-2-fluoro-N-(7′-((1-methylpiperidin-3-yl)oxy)-2′-oxospiro[cyclobutane-1,3′-indolin]-5′-yl)benzenesulfonamide] the IC50 was 600 to 1000 nM.
Work on `COc1ccccc1S(=O)(=O)Nc1cc(OC[C@@H]2CCCN2C)c2c(c1)C1(CCC1)C(=O)N2` [Compound 139, (S)-2-methoxy-N-(7′-((1-methylpyrrolidin-2-yl)methoxy)-2′-oxospiro[cyclobutane-1,3′-indolin]-5′-yl)benzenesulfonamide] yielded an IC50 of less than 600 nM.
With `Cn1cncc1COc1cc(NS(=O)(=O)c2ccc(Cl)cc2F)cc2c1NC(=O)C21CCC1` [Compound 160, 4-Chloro-2-fluoro-N-(7′-((1-methyl-1H-imidazol-5-yl)methoxy)-2′-oxospiro[cyclobutane-1,3′-indolin]-5′-yl)benzenesulfonamide] the IC50 was less than 600 nM.
For `COc1ccccc1S(=O)(=O)Nc1cc(OC2CCN(C(C)=O)CC2)c2c(c1)C1(CCC1)C(=O)N2` [Compound-220], the IC50 was less than 600 nM.
`COc1ccccc1S(=O)(=O)Nc1cc(OC2CCN(C)CC2F)c2c(c1)C1(CCC1)C(=O)N2` (single isomer, unassigned) [compound 191, N-(7′-((3-fluoro-1-methylpiperidin-4-yl)oxy)-2′-oxospiro[cyclobutane-1,3′-indolin]-5′-yl)-2-methoxybenzenesulfonamide] showed an IC50 of less than 600 nM.
With `O=C(Nc1cc(NS(=O)(=O)c2ccc(F)cc2F)cc2c1NC(=O)C21CCC1)c1cccnc1` [Compound 44, N-(5′-(2,4-Difluorophenylsulfonamido)-2′-oxospiro[cyclobutane-1,3′-indolin]-7′-yl)nicotinamide] the IC50 was greater than 1000 nM.
With `O=C1Nc2c(NC3CCCNC3)cc(NS(=O)(=O)c3ccc(F)cc3F)cc2C12CCC2` (stereo not drawn) [Compound 71, 2,4-Difluoro-N-(2′-oxo-7′-(piperidin-3-ylamino)spiro[cyclobutane-1,3′-indolin]-5′-yl)benzenesulfonamide hydrochloride] the IC50 was less than 600 nM.
Work on `COc1ccccc1NC(=O)Nc1cc(C2CC2)c2c(c1)C1(CCC1)C(=O)N2` [Compound 121, 1-(7′—Cyclopropyl-2′-oxospiro[cyclobutane-1,3′-indolin]-5′-yl)-3-(2-methoxyphenyl)urea] yielded an IC50 of less than 600 nM.
Work on `CC1CC(Oc2cc(NS(=O)(=O)c3ccc(Cl)cc3F)cc3c2NC(=O)C32CCC2)CC(C)N1` (stereo not drawn) [compound 201, 4-Chloro-N-(7′-((2,6-dimethylpiperidin-4-yl)oxy)-2′-oxospiro[cyclobutane-1,3′-indolin]-5′-yl)-2-fluorobenzenesulfonamide] yielded an IC50 of less than 600 nM.
For `O=C(Nc1cc(Br)c2c(c1)C1(CCC1)C(=O)N2)c1cccnc1N1CCOCC1` [Compound-222, N-(7′-bromo-2′-oxospiro[cyclobutane-1,3′-indolin]-5′-yl)-2-morpholinonicotinamide], the IC50 was greater than 1000 nM.
Work on `O=C1Nc2c(Nc3ccncc3)cc(NS(=O)(=O)c3ccc(F)cc3F)cc2C12CCC2` [Compound 62, 2,4-Difluoro-N-(2′-oxo-7′-(pyridin-4-ylamino)spiro[cyclobutane-1,3′-indolin]-5′-yl)benzenesulfonamide] yielded an IC50 greater than 1000 nM.
For `O=C1Nc2c(OCc3ccc(F)cn3)cc(NS(=O)(=O)c3ccc(Cl)cc3F)cc2C12CCC2` [Compound 147, 4-Chloro-2-fluoro-N-(7′-((5-fluoropyridin-2-yl)methoxy)-2′-oxospiro[cyclobutane-1,3′-indolin]-5′-yl)benzenesulfonamide], the IC50 was less than 600 nM.
For `COc1ccccc1S(=O)(=O)Nc1cc(OCCN2CCCC2)c2c(c1)C1(CCC1)C(=O)N2` [Compound 167, 2-Methoxy-N-(2′-oxo-7′-(2-(pyrrolidin-1-yl)ethoxy)spiro[cyclobutane-1,3′-indolin]-5′-yl)benzenesulfonamide], the IC50 was less than 600 nM.
For `COc1ccccc1S(=O)(=O)Nc1cc(C(C)C2CCCN(C)C2)c2c(c1)C1(CCC1)C(=O)N2` (single isomer, unassigned) [Compound 173, 2-Methoxy-N-(7′-(1-(1-methylpiperidin-3-yl)ethyl)-2′-oxospiro[cyclobutane-1,3′-indolin]-5′-yl)benzenesulfonamide], the IC50 was greater than 1000 nM.
For `COc1cc(F)ccc1S(=O)(=O)Nc1cc(Cc2cccc(F)c2)c2c(c1)C1(CCC1)C(=O)N2` [Compound 96, 4-Fluoro-N-(7′-(3-fluorobenzyl)-2′-oxospiro[cyclobutane-1,3′-indolin]-5′-yl)-2-methoxybenzenesulfonamide], the IC50 was less than 600 nM.
With `O=C1CC(c2cc(NS(=O)(=O)c3ccc(F)cc3F)cc3c2NC(=O)C32CCC2)CCN1` (stereo not drawn) [Compound 104, 2,4-Difluoro-N-(2′-oxo-7′-(2-oxopiperidin-4-yl)spiro[cyclobutane-1,3′-indolin]-5′-yl)benzenesulfonamide] the IC50 was less than 600 nM.
`Cc1nc(CNc2cc(NS(=O)(=O)c3ccc(F)cc3F)cc3c2NC(=O)C32CCC2)c[nH]1` [Compound 30, 2,4-Difluoro-N-(7′-(((2-methyl-1H-imidazol-4-yl)methyl)amino)-2′-oxospiro[cyclobutane-1,3′-indolin]-5′-yl)benzenesulfonamide] showed an IC50 of less than 600 nM.
Compound `COc1ccccc1S(=O)(=O)Nc1cc(OCC2CCN(C)CC2)c2c(c1)C1(CCC1)C(=O)N2` [Compound 146, 2-Methoxy-N-(7′-((1-methylpiperidin-4-yl)methoxy)-2′-oxospiro[cyclobutane-1,3′-indolin]-5′-yl)benzenesulfonamide] has an IC50 of less than 600 nM.
Compound `CN1CCN(C(=O)c2cc(NS(=O)(=O)c3ccc(F)cc3F)cc3c2NC(=O)C32CCC2)CC1` [Compound 47, 2,4-Difluoro-N-(7′-(4-methylpiperazine-1-carbonyl)-2′-oxospiro[cyclobutane-1,3′-indolin]-5′-yl)benzenesulfonamide] has an IC50 greater than 1000 nM.
Compound `C=C(c1ccccc1)c1cc(NS(=O)(=O)c2ccccc2OC)cc2c1NC(=O)C21CCC1` [Compound 11, 2-Methoxy-N-(2′-oxo-7′-(1-phenylvinyl)spiro[cyclobutane-1,3′-indolin]-5′-yl)benzenesulfonamide] has an IC50 of less than 600 nM.
Compound `COc1ccccc1S(C)(=O)=Nc1cc(NC2CCN(C)CC2)c2c(c1)C1(CCC1)C(=O)N2` (stereo not drawn) [Compound-183, 5′-(((2-Methoxyphenyl)(methyl)(oxo)-l6-sulfanylidene)amino)-7′-((1-methylpiperidin-4-yl)amino)spiro[cyclobutane-1,3′-indolin]-2′-one] has an IC50 of less than 600 nM.
For `O=C(Nc1cccnc1)c1cc(NS(=O)(=O)c2ccc(F)cc2F)cc2c1NC(=O)C21CCC1` [Compound 51, 5′-(2,4-Difluorophenylsulfonamido)-2′-oxo-N-(pyridin-3-yl)spiro[cyclobutane-1,3′-indoline]-7′-carboxamide], the IC50 was 600 to 1000 nM.
With `COc1ccc(S(=O)(=O)Nc2cc(OC3CCN(C)CC3)c3c(c2)C2(CCC2)C(=O)N3)c(OC)c1` [compound 187, 2,4-Dimethoxy-N-(7′-((1-methylpiperidin-4-yl)oxy)-2′-oxospiro[cyclobutane-1,3′-indolin]-5′-yl)benzenesulfonamide] the IC50 was less than 600 nM.
`O=C1Nc2c(NCc3cccnc3)cc(NS(=O)(=O)c3ccc(F)cc3F)cc2C12CCC2` [Compound 27, 2,4-difluoro-N-(2′-oxo-7′-((pyridin-3-ylmethyl)amino)spiro[cyclobutane-1,3′-indolin]-5′-yl)benzenesulfonamide] showed an IC50 of less than 600 nM.
Work on `CN1CCOC(COc2cc(NS(=O)(=O)c3ccc(Cl)cc3F)cc3c2NC(=O)C32CCC2)C1` (stereo not drawn) [compound 194, 4-Chloro-2-fluoro-N-(7′-((4-methylmorpholin-2-yl)methoxy)-2′-oxospiro[cyclobutane-1,3′-indolin]-5′-yl)benzenesulfonamide] yielded an IC50 of less than 600 nM.
`CN1CCC(Oc2cc(N(C)S(=O)(=O)c3ccc(F)cc3F)cc3c2NC(=O)C32CCC2)CC1` [compound 180, 2,4-Difluoro-N-methyl-N-(7′-((1-methylpiperidin-4-yl)oxy)-2′-oxospiro[cyclobutane-1,3′-indolin]-5′-yl)benzenesulfonamide] showed an IC50 of less than 600 nM.
`NC1(COc2cc(NS(=O)(=O)c3ccc(Cl)cc3F)cc3c2NC(=O)C32CCC2)CC1` [compound 207, N-(7′-((1-aminocyclopropyl)methoxy)-2′-oxospiro[cyclobutane-1,3′-indolin]-5′-yl)-4-chloro-2-fluorobenzenesulfonamide] showed an IC50 of less than 600 nM.
`CCN1CCC(Nc2cc(NS(=O)(=O)c3ccc(F)cc3F)cc3c2NC(=O)C32CCC2)CC1` [Compound 24, N-(7′-((1-ethylpiperidin-4-yl)amino)-2′-oxospiro[cyclobutane-1,3′-indolin]-5′-yl)-2,4-difluorobenzenesulfonamide] showed an IC50 of less than 600 nM.
